In experiment [1] the test system is cRXFP1. The experiment can be described thus: pGL3-CRE-luciferase reporter (cAMP/PKA), HEK293 cells expressing cRXFP1. The class given is cell-based, chicken. How it is done: (§1) According to our previously established methods ([Liu et al., 2019]; [Jiang et al., 2022]), two cell-based luciferase reporter systems (pGL3-CRE-luciferase and pGL3-NFAT-RE-luciferase) were used to verify whether cRLN3cm is biologically active and capable of activating cRXFP1 and cRXFP3. In brief, HEK293 cells transiently expressing each receptor (cRXFP1 and cRXFP3) were treated with 30 μl serum-free medium containing cRLN3cm or pcDNAcm (0.001–10 μl) for 6 h, and the receptor-activated cAMP/PKA pathways and calcium mobilization were then monitored by pGL3-CRE-luciferase and pGL3-NFAT-RE-luciferase reporter systems, respectively. HEK293 cells expressing empty pcDNA3.1 (+) were used as a negative control.
(§2) To compare the functional difference between chicken RLN3 and human RLN3, recombinant human RLN3 (rhRLN3, 10^–12 to 10^–7 M, 6 h) was used to treat HEK293 cells expressing cRXFP1 or cRXFP3, respectively, and its potency in activating cRXFP1 and cRXFP3 was also evaluated.
(§3) To verify whether chicken RLN3 can activate RXFP1 or RXFP3, a cRLN3-conditioned medium (cRLN3cm, 0.001–10 μl) was used to treat HEK293 cells expressing cRXFP1/cRXFP3. Receptor activation was examined by pGL3-CRE-luciferase and pGL3-NFAT-RE-luciferase reporter systems established in our previous studies ([Liu et al., 2019]).

The test system of experiment [2] is cRXFP3. The experiment can be described thus: pGL3-CRE-luciferase reporter, inhibition of forskolin-stimulated luciferase activity, HEK293 cells expressing cRXFP3. In kind it is cell-based, chicken. To be noted: rhRLN3 10^-12 to 10^-7 M, 6 h, HEK293 cells transiently expressing cRXFP3, N = 3, read-out: EC50, cAMP/PKA, cRXFP3 (inhibition of forskolin-stimulated luciferase activity). How it is done:
as §1, §2, §3
On the technique in general: Reporter assays use an easily measured gene product as a stand-in for the process of interest.

The subject of experiment [3] is cRXFP1. Nature of the experiment: pGL3-NFAT-RE-luciferase reporter (calcium mobilization), HEK293 cells expressing cRXFP1. In kind it is cell-based, chicken. The note with it: rhRLN3 10^-12 to 10^-7 M, 6 h, HEK293 cells transiently expressing cRXFP1, N = 3, read-out: EC50, Ca^2+, cRXFP1. As to the method:
as §1, §2, §3

In experiment [4] the test system is cRXFP3. The experiment can be described thus: pGL3-NFAT-RE-luciferase reporter (calcium mobilization), HEK293 cells expressing cRXFP3. The class given is cell-based, chicken. The note with it: rhRLN3 10^-12 to 10^-7 M, 6 h, N = 3. As to the method:
as §1, §2, §3

For experiment [5], the system named is HEK293 cells transfected with an empty pcDNA3.1 (+) vector. Nature of the experiment: Luciferase reporter control, HEK293 cells transfected with empty pcDNA3.1 (+) vector. The note with it: rhRLN3 10^-12 to 10^-7 M, 6 h; pGL3-CRE and pGL3-NFAT-RE reporters; N = 3. In kind it is cell-based. The text has this:
According to our previously established methods ([Liu et al., 2019]; [Jiang et al., 2022]), two cell-based luciferase reporter systems (pGL3-CRE-luciferase and pGL3-NFAT-RE-luciferase) were used to verify whether cRLN3cm is biologically active and capable of activating cRXFP1 and cRXFP3. […] HEK293 cells expressing empty pcDNA3.1 (+) were used as a negative control.
To explore whether pituitary cells can secrete RLN3, we collected the extracellular medium of adult female chicken pituitary cells to detect its activation potential. According to the method provided in the previous article ([Sun et al., 2021]; [Liu et al., 2022]), the anterior pituitaries from a laying hen were isolated and further cut into small pieces with clean scissors. After washing with PBS, the cut pieces were then digested with 0.25% trypsin at 37°C for 30 min. The dispersed pituitary cells were cultured in Medium 199 supplemented with 10% fetal bovine serum in a Corning Cell BIND 48-well plate (Corning, Tewksbury, MA) at 37°C with 5% CO2. […] The HEK293 cells expressing cRXFP1 were treated with a 60 μl serum-free medium containing chicken pituitary cell extracellular medium (2 × 10^−3μl to 2 × 10^1 μl) for 6 h, and then receptor-activated calcium mobilization was monitored by pGL3-NFAT-RE-luciferase reporter systems. […]

As to recombinant human relaxin 3 [rhRLN3], in the experiment on cRXFP1 [1] (HEK293 cells expressing cRXFP1 or cRXFP3), the “potency on cRXFP1 compared with cRXFP3 (in words)” value is “higher potency for cRXFP1 activation”. In addition, the EC50 is 2.68 nM in the experiment with cRXFP1 [1] (rhRLN3 10^-12 to 10^-7 M, 6 h, HEK293 cells transiently expressing cRXFP1, mean of three replicates (N = 3)); 41.5 nM in the experiment with cRXFP3 [2]; 21.1 nM in the experiment on cRXFP1 [3]. In addition, in the experiment with cRXFP3 [4], the “stimulation of luciferase activity (Ca^2+), cRXFP3” value is “not cRXFP3”. For the same substance, in experiment [5], the “change of luciferase activity in empty-vector cells” value is given as “did not change the luciferase activity”.

Values taken from PMC9676923, “Characterization of relaxin 3 and its receptors in chicken: Evidence for relaxin 3 acting as a novel pituitary hormone” (Frontiers in Physiology, 2022).
